Here are results for 1 molecule from PMC10449621, “Engineering cellular communication between light-activated synthetic cells and bacteria” (Nature Chemical Biology, 2023).

The subject of test [1] is BjaRS107R (B0033|ATG) receiver cells. Kind of test: BjaR receiver cell AHSL dose-response (gfp reporter, plate reader). In kind it is cell-based, E. coli XL10-Gold. The conditions noted are these: C4-HSL vs IV-HSL. An excerpt:
(§1) These findings are consistent with the predicted translation initiation rates of the respective sequences—translation from the BBa_B0033 RBS provides 1% of protein yield compared to the BBa_B0034 RBS, just as an CTG start codon provides 1% of the protein yield compared to an ATG start codon[30],[31]. This also offers support as to why the ON-state gfp expression level increased in variants with a tighter OFF-state; more cellular resources were available for GFP synthesis when comparatively fewer were allocated to BjaR synthesis. To elucidate the impact of the S107R variant on gene circuit performance, we introduced the S107R variant alone back into the bjaRWT gene, in the context of the BBa_B0033 RBS background.
(§2) In addition to quantifying how these BjaR receiver cells responded to their branched, cognate ligand, we also sought to determine whether the BjaR receiver cells could be activated by structurally dissimilar AHSLs involved in the LuxI/R, EsaI/R, LasI/R and RhlI/R QS systems previously used in synthetic cell communication[5],[7],[8]. To this end, we measured the fluorescence of BjaR receiver cells grown in the presence of their activators, 3OC6-HSL, 3OC12-HSL and C4-HSL, respectively (Supplementary Fig. 13a).
(§3) The BjaR reporter plasmids were retransformed into E. coli XL10-Gold cells for each experiment. A single colony was used to inoculate 5 ml LB + Amp media and incubated at 37 °C, 225 r.p.m. overnight. Overnight cultures were diluted 1/250 or 1/500 in 5 ml M9 minimal media + Amp and incubated at 37 °C, 225 r.p.m. for 3 h and 45 min (until OD600 = ~0.075). Cultures were diluted down to OD600 = 0.05 with M9 minimal media + Amp, and 200 µl was added to wells of a 96-well plate containing 1 µl IV-HSL dissolved in DMSO or 1 µl BjaI CFPS reactions (IV-HSL concentrations obtained from serial dilution from 63.2 µM to 632 pM; final DMSO concentration = 0.5%). Cells were incubated at 37 °C, 800 r.p.m., in a thermomixer with a heated lid for 4 h. Fluorescence and OD600 were measured in a Tecan M1000 infinite plate reader (excitation, 488 nm; emission, 510 nm; bandwidth, 5 nm; gain, 101 and z position, 21,311 µm). The dose–response curves were fitted to the function indicated by Eq. (1), where a = maximal fluorescence output, b = basal fluorescence output, X = concentration of AHSL, GFP = fluorescence at the given condition, EC50 = AHSL at 50% maximal fluorescence output and h = hill coefficient. EC50 and h were derived using the nonlinear regression model based on Eq. (1), in MATLAB. A summary of the dose–response data is available in Supplementary Table 1.1 GFP=b+a−b/1+10^logEC50−X×h

Test [2] deals with BjaRWT (B0033|ATG) receiver cells. The test is described as above. It counts as cell-based, E. coli XL10-Gold.
From the text: as §1, §2, §3

The subject of a further test is pRhlI promoters (RhlR). Further details: method as in PMID 29992956. The following applies: cited from earlier work.

As to `CCCC(=O)N[C@H]1CCOC1=O` [C4-HSL, N-butyryl-L-homoserine lactone], the “sensitivity for IV-HSL over C4-HSL” value in test [1] is reported as approximately 126 fold. Besides, the “activation of receiver cells at maximal concentration tested” value in test [2] (0.36 µM) is on record as “partially activated”. Also, the “C4-HSL required relative to IV-HSL for the same fluorescence output (lower sensitivity)” value in test [2] (C4-HSL vs IV-HSL) is recorded as approximately 126 ×. In the test on pRhlI promoters (RhlR), the “concentration required to fully activate expression from pRhlI promoters” value was more than 100 µM.
